Values of other authors in US20070010584A1, “Compositions and methods for orthostatic intolerance” (priority 2003, published 2007).
Where two headings read alike, the source gives them in different places. One block for each compound: values may come before it.

How the values were obtained:
[1] = in vivo
[2] = tested on: patients with OI and orthostatic tachycardia; details: in vivo
[3] = clonidine 0.1 mg PO, 13 patients with OI

half-life [1]: 30 min
SMILES: COc1ccc(OC)c(C(O)CNC(=O)CN)c1 (stereo not drawn) [Midodrine]
supine and standing heart rate (patients with OI; midodrine 5-10 mg PO, 13 patients with OI): decreased both supine and standing heart rate

time of peak NE levels (after ingestion of DOPS): about 5 hours
duration of increased plasma levels of DOPS and NE (after oral administration of DOPS): at least 12 hours
time of peak plasma levels of DOPS (after oral ingestion): about 3 hours
SMILES: N[C@H](C(=O)O)[C@H](O)c1ccc(O)c(O)c1 [DOPS, Threo-3-(3,4-dihydroxyphenyl)serine]

SMILES: Clc1cccc(Cl)c1N=C1NCCN1 [clonidine]
tolerability in OI patients (patients with OI; clonidine 0.1 mg PO): tolerate clonidine poorly
blood pressure (patients with OI; [3]): significantly decreased blood pressure
supine and standing heart rate (patients with OI; [3]): decreased both supine and standing heart rate

SMILES: CC(C)NCC(O)COc1cccc2ccccc12 (stereo not drawn) [Propranolol]
efficacy in OI and orthostatic tachycardia [2]: effective in a number of patients
